Structures can show the parent of a compound that is named as a salt.
The molecules below were run against T1, rat NaPi-2b (Rattus norvegicus, UniProt Q9JJ09) (assay: Sodium-dependent phosphate uptake of Xenopus oocytes which expressed NaPi-2b (32P)). Conditions: Xenopus oocytes expressing rat NaPi-2b, 32P radioactive phosphorus; read-out: IC50 (phosphate uptake inhibitory activity).
T1 construct: expressed in transfected cells; host or cells: Xenopus oocytes injected with cRNA
T1 sequence (Q9JJ09 1-695): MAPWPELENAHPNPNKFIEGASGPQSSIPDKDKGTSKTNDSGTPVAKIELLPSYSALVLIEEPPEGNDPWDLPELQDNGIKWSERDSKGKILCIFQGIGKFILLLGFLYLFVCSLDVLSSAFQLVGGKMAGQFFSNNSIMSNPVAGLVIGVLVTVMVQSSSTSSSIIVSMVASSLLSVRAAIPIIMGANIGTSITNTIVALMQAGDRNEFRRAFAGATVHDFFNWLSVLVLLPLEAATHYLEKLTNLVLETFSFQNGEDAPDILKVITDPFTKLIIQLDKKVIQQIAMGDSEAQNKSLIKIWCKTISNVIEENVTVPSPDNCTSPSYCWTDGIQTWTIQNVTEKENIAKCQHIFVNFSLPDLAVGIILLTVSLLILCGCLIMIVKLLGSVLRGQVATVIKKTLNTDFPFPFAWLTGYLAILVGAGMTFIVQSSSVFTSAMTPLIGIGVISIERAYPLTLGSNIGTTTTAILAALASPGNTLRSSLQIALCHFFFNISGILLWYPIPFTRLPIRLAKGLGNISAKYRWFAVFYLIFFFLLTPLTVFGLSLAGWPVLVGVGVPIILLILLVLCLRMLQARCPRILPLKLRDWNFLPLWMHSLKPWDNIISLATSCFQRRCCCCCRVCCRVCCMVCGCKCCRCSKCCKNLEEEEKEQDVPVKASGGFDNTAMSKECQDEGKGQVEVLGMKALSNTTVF
Type: cell-based
How it was run: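 Rat small-intestine NaPi-2b cRNA injected into Xenopus oocytes, expressed for 2 days. Sodium-dependent phosphate uptake measured with 32P; % inhibition at 300 and 100 μM taken from the same inhibition curve.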

SMILES	IC50
O=C(Nc1ccc(Br)cc1C(=O)N/N=C/C=C/c1ccccc1)c1ccncc1 [Compound 347, N-[4-Bromo-2-(3-phenyl-allylidene-hydrazinocarbonyl)-phenyl]-isonicotinamide]	4.91 µM
O=C(Nc1ccc(Cl)cc1C(=O)N/N=C/C=C/c1ccccc1)c1cccnc1 [Compound 348, N-[4-Chloro-2-(3-phenyl-allylidene-hydrazinocarbonyl)-phenyl]-nicotinamide]	16.6 µM
O=C(Nc1ccc(Cl)cc1C(=O)N/N=C/C=C/c1ccccc1)c1ccncc1 [Compound 349, N-[4-Chloro-2-(3-phenyl-allylidene-hydrazinocarbonyl)-phenyl]-isonicotinamide]	8.78 µM
O=C(Nc1ccc(Br)cc1C(=O)N/N=C/c1cccc(OCCO)c1)c1ccncc1 [Compound 350, N-{4-Bromo-2-[3-(2-hydroxy-ethoxy)-benzylidene-hydrazinocarbonyl]-phenyl}-isonicotinamide]	25.3 µM
O=C(Nc1ccc(Cl)cc1C(=O)N/N=C/c1cccc(OCCO)c1)c1ccncc1 [Compound 351, N-{4-Chloro-2-[3-(2-hydroxy-ethoxy)-benzylidene-hydrazinocarbonyl]-phenyl}-isonicotinamide]	8.96 µM
COc1ccccc1/C=C/C=N/NC(=O)c1cc(Br)ccc1NC(=O)c1cccnc1 [Compound 352, N-{4-Bromo-2-[3-(2-methoxy-phenyl)-allylidene-hydrazinocarbonyl]-phenyl}-nicotinamide]	13 µM
COc1ccccc1/C=C/C=N/NC(=O)c1cc(Br)ccc1NC(=O)c1ccncc1 [Compound 353, N-{4-Bromo-2-[3-(2-methoxy-phenyl)-allylidene-hydrazinocarbonyl]-phenyl}-isonicotinamide]	8.85 µM
COc1ccccc1/C=C/C=N/NC(=O)c1cc(Cl)ccc1NC(=O)c1cccnc1 [Compound 354, N-{4-Chloro-2-[3-(2-methoxy-phenyl)-allylidene-hydrazinocarbonyl]-phenyl}-nicotinamide]	1.54 µM
Cc1ccc(/C=N/NC(=O)c2cc(Br)ccc2NC(=O)c2ccccn2)cc1 [Compound 356, Pyridin-2-carboxylic acid [4-bromo-2-(4-methyl-benzylidene-hydrazinocarbonyl)-phenyl]-amide hydrochloride]	0.17 µM
CN(C)c1ccc(/C=C/C=N/NC(=O)c2ccccc2NC(=O)c2cccnc2)cc1 [Compound 358, N-{2-[3-(4-Dimethylamino-phenyl)-allylidene-hydrazinocarbonyl]-phenyl}-nicotinamide]	54.1 µM
O=C(Nc1ccc(Cl)cc1C(=O)N/N=C/c1cccc(F)c1)c1ccccn1 [Compound 359, Pyridin-2-carboxylic acid [4-chloro-2-(3-fluoro-benzylidene-hydrazinocarbonyl)-phenyl]-amide]	7.1 µM
O=C(Nc1ccc(Cl)cc1C(=O)N/N=C/c1ccc(F)cc1)c1ccccn1 [Compound 360, Pyridin-2-carboxylic acid [4-chloro-2-(4-fluoro-benzylidene-hydrazinocarbonyl)-phenyl]-amide]	0.63 µM
Cc1cccc(/C=N/NC(=O)c2cc(Cl)ccc2NC(=O)c2ccccn2)c1 [Compound 361, Pyridin-2-carboxylic acid [4-chloro-2-(3-methyl-benzylidene-hydrazinocarbonyl)-phenyl]-amide]	< 1 µM
Cc1ccc(/C=N/NC(=O)c2cc(Cl)ccc2NC(=O)c2ccccn2)cc1 [Compound 362, Pyridin-2-carboxylic acid [4-chloro-2-(4-methyl-benzylidene-hydrazinocarbonyl)-phenyl]-amide]	< 1 µM
Cc1ccc(/C=N/NC(=O)c2cc(Cl)ccc2NC(=O)c2ccccn2)cc1C [Compound 363, Pyridin-2-carboxylic acid [4-chloro-2-(3,4-dimethyl-benzylidene-hydrazinocarbonyl)-phenyl]-amide]	< 1 µM
O=C(Nc1ccc(Cl)cc1C(=O)N/N=C/c1ccc(Cl)c(C(F)(F)F)c1)c1ccccn1 [Compound 364, Pyridin-2-carboxylic acid [4-chloro-2-(4-chloro-3-trifluoromethyl-benzylidene-hydrazinocarbonyl)-phenyl]-amide]	< 1 µM
COc1ccc(C(=O)Nc2ccc(Br)cc2C(=O)NNCc2ccc(C)cc2)cc1OC [Compound 367, N-{4-Bromo-2-[N′-(4-methyl-benzyl)-hydrazinocarbonyl]-phenyl}-3,4-dimethoxy-benzamide]	6.88 µM
O=C(Nc1ccc(Cl)cc1C(=O)N/N=C/c1cccc(F)c1)c1cccc(CN2CCC(N3CCCCC3)CC2)c1 [Compound 368, 3-[1,4′]Bipiperidinyl-1′-ylmethyl-N-[4-chloro-2-(3-fluoro-benzylidene-hydrazinocarbonyl)-phenyl]-benzamide]	1.37 µM
O=C(Nc1ccc(Cl)cc1C(=O)N/N=C/c1ccc(F)cc1)c1cccc(CN2CCC(N3CCCCC3)CC2)c1 [Compound 369, 3-[1,4′]Bipiperidinyl-1′-ylmethyl-N-[4-chloro-2-(4-fluoro-benzylidene-hydrazinocarbonyl)-phenyl]-benzamide]	1.45 µM
Cc1cccc(/C=N/NC(=O)c2cc(Cl)ccc2NC(=O)c2cccc(CN3CCC(N4CCCCC4)CC3)c2)c1 [Compound 370, 3-[1,4′]Bipiperidinyl-1′-ylmethyl-N-[4-chloro-2-(3-methyl-benzylidene-hydrazinocarbonyl)-phenyl]-benzamide]	1.86 µM
Cc1ccc(/C=N/NC(=O)c2cc(Cl)ccc2NC(=O)c2cccc(CN3CCC(N4CCCCC4)CC3)c2)cc1 [Compound 371, 3-[1,4′]Bipiperidinyl-1′-ylmethyl-N-[4-chloro-2-(4-methyl-benzylidene-hydrazinocarbonyl)-phenyl]-benzamide]	2.54 µM
O=C(Nc1ccc(Cl)cc1C(=O)N/N=C/c1ccc(Cl)c(C(F)(F)F)c1)c1cccc(CN2CCC(N3CCCCC3)CC2)c1 [Compound 373, 3-[1,4′]Bipiperidinyl-1′-ylmethyl-N-[4-chloro-2-(4-chloro-3-trifluoromethyl-benzylidene-hydrazinocarbonyl)-phenyl]-benzamide]	1.68 µM
COc1cccc(/C=N/NC(=O)c2cc(Cl)ccc2NC(=O)c2cccc(CN3CCC(N4CCCCC4)CC3)c2)c1 [Compound 374, 3-[1,4′]Bipiperidinyl-1′-ylmethyl-N-[4-chloro-2-(3-methoxy-benzylidene-hydrazinocarbonyl)-phenyl]-benzamide]	9.25 µM
COc1ccc(/C=N/NC(=O)c2cc(Cl)ccc2NC(=O)c2cccc(CN3CCC(N4CCCCC4)CC3)c2)cc1 [Compound 375, 3-[1,4′]Bipiperidinyl-1′-ylmethyl-N-[4-chloro-2-(4-methoxy-benzylidene-hydrazinocarbonyl)-phenyl]-benzamide]	24.7 µM
O=C(Nc1ccc(Cl)cc1C(=O)N/N=C/c1cccc(O)c1)c1cccc(CN2CCC(N3CCCCC3)CC2)c1 [Compound 376, 3-[1,4′]Bipiperidinyl-1′-ylmethyl-N-[4-chloro-2-(3-hydroxy-benzylidene-hydrazinocarbonyl)-phenyl]-benzamide]	21 µM
O=C(Nc1ccc(Cl)cc1C(=O)N/N=C/c1ccc(O)cc1)c1cccc(CN2CCC(N3CCCCC3)CC2)c1 [Compound 377, 3-[1,4′]Bipiperidinyl-1′-ylmethyl-N-[4-chloro-2-(4-hydroxy-benzylidene-hydrazinocarbonyl)-phenyl]-benzamide]	9.65 µM
COc1cccc(CNNC(=O)c2cc(Br)ccc2NC(=O)c2ccc(CN3CCC(N4CCCCC4)CC3)cc2)c1 [Compound 378, 4-[1,4′]Bipiperidinyl-1′-ylmethyl-N-{4-bromo-2-[N′-(3-methoxy-benzyl)-hydrazinocarbonyl]-phenyl}-benzamide]	4.35 µM
CCN(CC)CCN(C)Cc1cccc(C(=O)Nc2ccc(Cl)cc2C(=O)N/N=C/c2cccc(F)c2)c1 [Compound 379, N-[4-Chloro-2-(3-fluoro-benzylidene-hydrazinocarbonyl)-phenyl]-3-{[(2-diethylamino-ethyl)-methyl-amino]-methyl}-benzamide]	0.97 µM
CCN(CC)CCN(C)Cc1cccc(C(=O)Nc2ccc(Cl)cc2C(=O)N/N=C/c2ccc(F)cc2)c1 [Compound 380, N-[4-Chloro-2-(4-fluoro-benzylidene-hydrazinocarbonyl)-phenyl]-3-{[(2-diethylamino-ethyl)-methyl-amino]-methyl}-benzamide]	0.35 µM

Same assay, conditions: phosphate uptake, oocytes expressing rat NaPi-2b; 300 μM, determined from inhibition curve

SMILES	inhibition at 300 µM
Cc1cccc(/C=N/NC(=O)c2cc(Br)ccc2NC(=O)c2ccc(CSc3cccc(F)c3)cc2)c1 [Compound 357, N-[4-Bromo-2-(3-methyl-benzylidene-hydrazinocarbonyl)-phenyl]-4-(3-fluoro-phenylsulfanylmethyl)-benzamide]	65.8%
Cc1ccc(CNNC(=O)c2cc(Cl)ccc2NC(=O)c2cccc(CSc3ccncc3)c2)cc1C [Compound 366, N-{4-Chloro-2-[N′-(3,4-dimethyl-benzyl)-hydrazinocarbonyl]-phenyl}-3-(pyridin-4-ylsulfanylmethyl)-benzamide]	69.9%

From US8134015B2, “Compound inhibiting in vivo phosphorous transport and medicine containing the same” (Kyowa Hakko Kirin Co., Ltd., priority 2003, dated 2012)
